# Test results reported in PubChem BioAssay AID1963451 (Molecular Pharmacology Branch, DTP, NCI, 2024).
# “And” between values parts separate entries of the source, which are not always exact repeats. Identical values can stand only once.
# Tested on: 521955-158-R6-J3-PDC complex spheroid growth, % test/control
# Assay: Anticancer human tumor 521955-158-R6-J3-PDC patient-derived pancreatic carcinoma cell line growth inhibition [Asc]
# Details: for viability, T/C: stronger effect = lower value
# In short: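 Complex solid-tumor spheroids incorporating human endothelial and mesenchymal stem cells received single agents or combinations over half-log dilution ranges anchored to clinical Cmax.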
# [1] = curve of first compound, second compound 0.0316 µM
# [2] = curve of first compound, second compound 0.1 µM
# [3] = curve of first compound, second compound 0.316 µM
# [4] = curve of first compound, second compound 1 µM
# [5] = curve of first compound, second compound 3.16 µM
# [6] = curve of first compound, second compound 10 µM
# [7] = second compound 0.0316 µM, first compound 0.00949 µM
# [8] = second compound 0.0316 µM, first compound 0.03 µM
# [9] = second compound 0.0316 µM, first compound 0.0949 µM
# [10] = second compound 0.0316 µM, first compound 0.3 µM
# [11] = second compound 0.1 µM, first compound 0.00949 µM
# [12] = second compound 0.1 µM, first compound 0.03 µM
# [13] = second compound 0.1 µM, first compound 0.0949 µM
# [14] = second compound 0.1 µM, first compound 0.3 µM
# [15] = second compound 0.316 µM, first compound 0.00949 µM
# [16] = second compound 0.316 µM, first compound 0.03 µM
# [17] = second compound 0.316 µM, first compound 0.0949 µM
# [18] = second compound 0.316 µM, first compound 0.3 µM
# [19] = second compound 1 µM, first compound 0.00949 µM
# [20] = second compound 1 µM, first compound 0.03 µM
# [21] = second compound 1 µM, first compound 0.0949 µM
# [22] = second compound 1 µM, first compound 0.3 µM
# [23] = second compound 3.16 µM, first compound 0.00949 µM
# [24] = second compound 3.16 µM, first compound 0.03 µM
# [25] = second compound 3.16 µM, first compound 0.0949 µM
# [26] = second compound 3.16 µM, first compound 0.3 µM
# [27] = second compound 10 µM, first compound 0.00949 µM
# [28] = second compound 10 µM, first compound 0.03 µM
# [29] = second compound 10 µM, first compound 0.0949 µM
# [30] = second compound 10 µM, first compound 0.3 µM
# [31] = second compound 0.0316 µM, first compound 0.000949 µM
# [32] = second compound 0.0316 µM, first compound 0.003 µM
# [33] = second compound 0.1 µM, first compound 0.000949 µM
# [34] = second compound 0.1 µM, first compound 0.003 µM
# [35] = second compound 0.316 µM, first compound 0.000949 µM
# [36] = second compound 0.316 µM, first compound 0.003 µM
# [37] = second compound 1 µM, first compound 0.000949 µM
# [38] = second compound 1 µM, first compound 0.003 µM
# 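Note: spheroids exposed to compounds for 7 days.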
# 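Throughout, for viability, T/C: 100% = DMSO vehicle control wells.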
smiles,measurement,setting,value
Cc1nc(N2CCC3(CC2)COC(C)C3N)c(CO)nc1Sc1ccnc(N)c1Cl (stereo unspecified) + Cc1c(S(C)(=O)=O)c(-c2cc(F)cc(N3CCN(c4ccc(NS(=O)(=O)c5ccc(NC(CCN6CCC(C(=O)OCCCP(=O)(O)O)CC6)CSc6ccccc6)c(S(=O)(=O)C(F)(F)F)c5)cc4)CC3)c2)c(-c2ccc(Cl)cc2)n1C(C)C,IC50,[1],> 3000 nM
same,IC50,[2],177 nM
same,IC50,[3],< 9.49 nM
same,IC50,[4],< 9.49 nM
same,IC50,[5],< 9.49 nM
same,IC50,[6],< 9.49 nM
same,"viability, T/C",[7],81.8%
same,"viability, T/C",[8],75%
same,"viability, T/C",[9],57.6%
same,"viability, T/C",[10],61.2%
same,"viability, T/C","second compound 0.0316 µM, first compound 0.949 µM",58.6%
same,"viability, T/C","second compound 0.0316 µM, first compound 3 µM",51.7%
same,"viability, T/C",[11],77.4%
same,"viability, T/C",[12],63.2%
same,"viability, T/C",[13],49.1%
same,"viability, T/C",[14],54.4%
same,"viability, T/C","second compound 0.1 µM, first compound 0.949 µM",39.6%
same,"viability, T/C","second compound 0.1 µM, first compound 3 µM",39.9%
same,"viability, T/C",[15],42.6%
same,"viability, T/C",[16],38.7%
same,"viability, T/C",[17],41.9%
same,"viability, T/C",[18],29%
same,"viability, T/C","second compound 0.316 µM, first compound 0.949 µM",31.1%
same,"viability, T/C","second compound 0.316 µM, first compound 3 µM",22.3%
same,"viability, T/C",[19],26.3%
same,"viability, T/C",[20],24.8%
same,"viability, T/C",[21],22.8%
same,"viability, T/C",[22],26%
same,"viability, T/C","second compound 1 µM, first compound 0.949 µM",15.5%
same,"viability, T/C","second compound 1 µM, first compound 3 µM",14.1%
same,"viability, T/C",[23],16.7%
same,"viability, T/C",[24],19.9%
same,"viability, T/C",[25],12.2%
same,"viability, T/C",[26],12.5%
same,"viability, T/C","second compound 3.16 µM, first compound 0.949 µM",11.6%
same,"viability, T/C","second compound 3.16 µM, first compound 3 µM",8.25%
same,"viability, T/C",[27],12.8%
same,"viability, T/C",[28],11.4%
same,"viability, T/C",[29],12.7%
same,"viability, T/C",[30],7.14%
same,"viability, T/C","second compound 10 µM, first compound 0.949 µM",8.9%
same,"viability, T/C","second compound 10 µM, first compound 3 µM",8.72%
CCN1C(C(=O)NC23CCC(C(=O)O)(CC2)CC3)C(c2cccc(Cl)c2F)C2(C(=O)Nc3cc(Cl)ccc32)C12CCCCC2 (stereo unspecified),"viability, T/C",compound 0.3 µM,109% [middle of 9 runs]
same,IC50,"compound alone, run of 11/07/2022",> 3000 nM
same,IC50,curve of compound,> 3000 nM
O=C(c1ccc(F)c(F)c1Nc1ccc(I)cc1F)N1CC(O)([C@@H]2CCCCN2)C1,"viability, T/C",compound 0.00316 µM,87.6% and 110% and 88.3%
same,"viability, T/C",compound 0.01 µM,116% and 111% and 90.7%
same,"viability, T/C",compound 0.0316 µM,120% and 125% and 79.5%
same,"viability, T/C",compound 0.1 µM,105% and 98.2% and 79%
same,"viability, T/C",compound 0.316 µM,67.9% and 66.9% and 54%
same,"viability, T/C",compound 1 µM,41% and 41.8% and 29.7%
same,IC50,curve of compound,681 nM and 684 nM and 396 nM
NC(=O)C(=Cn1cnc(-c2cc(C(F)(F)F)cc(C(F)(F)F)c2)n1)c1cncnc1 + Cc1c(S(C)(=O)=O)c(-c2cc(F)cc(N3CCN(c4ccc(NS(=O)(=O)c5ccc(NC(CCN6CCC(C(=O)OCCCP(=O)(O)O)CC6)CSc6ccccc6)c(S(=O)(=O)C(F)(F)F)c5)cc4)CC3)c2)c(-c2ccc(Cl)cc2)n1C(C)C,IC50,[1],> 300 nM
same,IC50,[2],> 300 nM
same,IC50,[3],> 300 nM
same,IC50,[4],< 0.949 nM
same,IC50,[5],< 0.949 nM
same,IC50,[6],< 0.949 nM
same,"viability, T/C",[31],95%
same,"viability, T/C",[32],97.1%
same,"viability, T/C",[7],60.6%
same,"viability, T/C",[8],82.1%
same,"viability, T/C",[9],103%
same,"viability, T/C",[10],108%
same,"viability, T/C",[33],84%
same,"viability, T/C",[34],90.4%
same,"viability, T/C",[11],70.9%
same,"viability, T/C",[12],62.1%
same,"viability, T/C",[13],89.3%
same,"viability, T/C",[14],85.9%
same,"viability, T/C",[35],70.3%
same,"viability, T/C",[36],49%
same,"viability, T/C",[15],47.2%
same,"viability, T/C",[16],47.5%
same,"viability, T/C",[17],69.6%
same,"viability, T/C",[18],43.5%
same,"viability, T/C",[37],47.1%
same,"viability, T/C",[38],30.3%
same,"viability, T/C",[19],34.6%
same,"viability, T/C",[20],33%
same,"viability, T/C",[21],43.8%
same,"viability, T/C",[22],18.4%
same,"viability, T/C","second compound 3.16 µM, first compound 0.000949 µM",19.8%
same,"viability, T/C","second compound 3.16 µM, first compound 0.003 µM",21.9%
same,"viability, T/C",[23],22.6%
same,"viability, T/C",[24],20.9%
same,"viability, T/C",[25],16.2%
same,"viability, T/C",[26],5.69%
same,"viability, T/C","second compound 10 µM, first compound 0.000949 µM",12.2%
same,"viability, T/C","second compound 10 µM, first compound 0.003 µM",16.9%
same,"viability, T/C",[27],11.6%
same,"viability, T/C",[28],10.2%
same,"viability, T/C",[29],9.2%
same,"viability, T/C",[30],0.76%
NC(=O)C(=Cn1cnc(-c2cc(C(F)(F)F)cc(C(F)(F)F)c2)n1)c1cncnc1 + CNC(C)C(=O)NC1CN(S(=O)(=O)c2cccc(S(=O)(=O)N3CCC4CCC(C(=O)NC(c5ccccc5)c5ccccc5)N4C(=O)C(NC(=O)C(C)NC)C3)c2)CCC2CCC(C(=O)NC(c3ccccc3)c3ccccc3)N2C1=O,IC50,"curve of first compound, second compound 0.00316 µM",> 300 nM
same,IC50,"curve of first compound, second compound 0.01 µM",> 300 nM
same,IC50,[1],> 300 nM
same,IC50,[2],> 300 nM
same,IC50,[3],> 300 nM
same,IC50,[4],> 300 nM
same,"viability, T/C","second compound 0.00316 µM, first compound 0.000949 µM",114%
same,"viability, T/C","second compound 0.00316 µM, first compound 0.003 µM",122%
same,"viability, T/C","second compound 0.00316 µM, first compound 0.00949 µM",119%
same,"viability, T/C","second compound 0.00316 µM, first compound 0.03 µM",104%
same,"viability, T/C","second compound 0.00316 µM, first compound 0.0949 µM",93.9%
same,"viability, T/C","second compound 0.00316 µM, first compound 0.3 µM",66.5%
same,"viability, T/C","second compound 0.01 µM, first compound 0.000949 µM",71%
same,"viability, T/C","second compound 0.01 µM, first compound 0.003 µM",69.2%
same,"viability, T/C","second compound 0.01 µM, first compound 0.00949 µM",59.2%
same,"viability, T/C","second compound 0.01 µM, first compound 0.03 µM",81.7%
same,"viability, T/C","second compound 0.01 µM, first compound 0.0949 µM",83.7%
same,"viability, T/C","second compound 0.01 µM, first compound 0.3 µM",75.5%
same,"viability, T/C",[31],79.5%
same,"viability, T/C",[32],59.5%
same,"viability, T/C",[7],63.9%
same,"viability, T/C",[8],62.9%
same,"viability, T/C",[9],79.6%
same,"viability, T/C",[10],66.6%
same,"viability, T/C",[33],65.7%
same,"viability, T/C",[34],69%
same,"viability, T/C",[11],65.2%
same,"viability, T/C",[12],58.7%
same,"viability, T/C",[13],75.2%
same,"viability, T/C",[14],75.1%
same,"viability, T/C",[35],61%
same,"viability, T/C",[36],69.9%
same,"viability, T/C",[15],70.3%
same,"viability, T/C",[16],71%
same,"viability, T/C",[17],68%
same,"viability, T/C",[18],70.2%
same,"viability, T/C",[37],54.4%
same,"viability, T/C",[38],66.9%
same,"viability, T/C",[19],70%
same,"viability, T/C",[20],60.6%
same,"viability, T/C",[21],86.1%
same,"viability, T/C",[22],62%
